Measured values published in ChEMBL document CHEMBL5715260, “Selectivity Literature for EUbOPEN Chemogenomic Library” (2024).
pIC50, pKd, pKi: −log10 of the molar value. One block for each molecule: values may come before it. Where a SMILES comes first, the peptide text is derived from it. [ ]: non-standard residue; d: D form. The star is where a group is joined. Benzoyl(4-OPh) = O=C(c1ccc(Oc2ccccc2)cc1)*; Lys(Et2) = CCN(CC)CCCC[C@H](N)C(=O)O; d(aIle) = CC[C@H](C)[C@@H](N)C(=O)O; Gly(cPent) = N[C@H](C(=O)O)C1CCCC1; NH(propargyl) = C#CCN*

Experiments:
[1] = target: Oxidized purine nucleoside triphosphate hydrolase (Homo sapiens) (UniProt P36639); experiment: Selectivity interaction (Nudix + Nucleotide phosphohydrolase panel (enzymatic assay)) EUB0002332a NUDT1; design: recommended concentration 1 uM; details: at 100 µM
[2] = target: 5-hydroxytryptamine receptor 1B (Homo sapiens) (UniProt P28222); experiment: (§1) Selectivity interaction (SafetyScreen (Eurofins)) EUB0002332a HTR1B; design: recommended concentration 1 uM; details: at 10 µM
[3] = target: Sodium-dependent dopamine transporter (Homo sapiens) (UniProt Q01959); experiment: Selectivity interaction (SafetyScreen (Eurofins)) EUB0002332a SLC6A3; design: recommended concentration 1 uM; details: at 10 µM
[4] = target: Sodium-dependent noradrenaline transporter (Homo sapiens) (UniProt P23975); experiment: Selectivity interaction (SafetyScreen (Eurofins)) EUB0002332a SLC6A2; design: recommended concentration 1 uM; details: at 10 µM
[5] = target: Voltage-gated inwardly rectifying potassium channel KCNH2 (Homo sapiens, UniProt Q12809); experiment: Selectivity interaction (SafetyScreen (Eurofins)) EUB0002332a KCNH2; design: recommended concentration 1 uM; details: at 10 µM
[6] = target: 5-hydroxytryptamine receptor 1B (Homo sapiens) (UniProt P28222); experiment: as §1; design: recommended concentration 1 uM; details: at 10 µM; remark: listed apart in the source
[7] = target: P2X purinoceptor 3 (Homo sapiens, UniProt P56373); experiment: Selectivity interaction (Patch-clamp recording assay) EUB0002673aCl P2RX3; design: recommended concentration 1 uM
[8] = target: Muscarinic acetylcholine receptor M1 (Homo sapiens, UniProt P11229); experiment: Selectivity interaction (Membrane binding assay) EUB0002488aCl CHRM1; design: recommended concentration 1 uM
[9] = target: T1, Histone acetyltransferase p300 (Homo sapiens, UniProt Q09472); experiment: (§2) Selectivity interaction (BROMOscan (DiscoverX)) EUB0002298a EP300; design: recommended concentration 1 uM
[10] = target: T1, Histone acetyltransferase p300; experiment: as §2; design: recommended concentration 1 uM; remark: listed apart in the source
[11] = target: T1, Histone acetyltransferase p300; experiment: as §2; design: recommended concentration 1 uM; remark: listed apart in the source
[12] = target: Bromodomain adjacent to zinc finger domain protein 2A (Homo sapiens, UniProt Q9UIF9); experiment: Selectivity interaction (BROMOscan (Eurofins)) EUB0002282a BAZ2A; design: recommended concentration 1 uM
[13] = target: Bromodomain adjacent to zinc finger domain protein 2B (Homo sapiens, UniProt Q9UIF8); experiment: Selectivity interaction (BROMOscan (Eurofins)) EUB0002282a BAZ2B; design: recommended concentration 1 uM
[14] = target: Peregrin (Homo sapiens, UniProt P55201); experiment: Selectivity interaction (BROMOscan (Eurofins)) EUB0002282a BRPF1; design: recommended concentration 1 uM
[15] = target: Transcription initiation factor TFIID subunit 1 (Homo sapiens, UniProt P21675); experiment: Selectivity interaction (BROMOscan (Eurofins)) EUB0002282a TAF1; design: recommended concentration 1 uM
[16] = target: T2, Bromodomain-containing protein 9 (Homo sapiens, UniProt Q9H8M2); experiment: Selectivity interaction (BROMOscan (Eurofins)) EUB0002282a BRD9; design: recommended concentration 1 uM
T2 sequence (Q9H8M2 whole entry): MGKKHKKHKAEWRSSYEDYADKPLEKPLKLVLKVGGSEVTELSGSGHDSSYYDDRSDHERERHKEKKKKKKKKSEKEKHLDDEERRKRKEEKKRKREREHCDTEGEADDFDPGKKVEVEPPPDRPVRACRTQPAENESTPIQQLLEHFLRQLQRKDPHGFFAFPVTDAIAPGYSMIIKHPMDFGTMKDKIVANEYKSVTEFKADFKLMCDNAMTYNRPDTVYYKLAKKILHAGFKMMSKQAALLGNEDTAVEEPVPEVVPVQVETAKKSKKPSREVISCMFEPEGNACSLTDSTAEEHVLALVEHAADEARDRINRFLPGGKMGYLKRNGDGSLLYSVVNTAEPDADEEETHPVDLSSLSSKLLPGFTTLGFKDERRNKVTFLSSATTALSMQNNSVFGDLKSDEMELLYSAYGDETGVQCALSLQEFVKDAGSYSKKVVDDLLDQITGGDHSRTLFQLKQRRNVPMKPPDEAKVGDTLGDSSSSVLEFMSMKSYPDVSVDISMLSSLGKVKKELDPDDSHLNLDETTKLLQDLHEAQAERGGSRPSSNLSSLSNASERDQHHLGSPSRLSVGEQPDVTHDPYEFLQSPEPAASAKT

[17] = target: Bromodomain testis-specific protein (Homo sapiens, UniProt Q58F21); experiment: Selectivity interaction (BROMOscan (Eurofins)) EUB0002282a BRDT; design: recommended concentration 1 uM
[18] = target: T1, Histone acetyltransferase p300; experiment: Selectivity interaction (BROMOscan (Eurofins)) EUB0002282a EP300; design: recommended concentration 1 uM
[19] = target: CREB-binding protein (Homo sapiens, UniProt Q92793); experiment: Selectivity interaction (BROMOscan (Eurofins)) EUB0002282a CREBBP; design: recommended concentration 1 uM
[20] = target: Chromatin remodeling regulator CECR2 (Homo sapiens, UniProt Q9BXF3); experiment: Selectivity interaction (BROMOscan (Eurofins)) EUB0002282a CECR2; design: recommended concentration 1 uM
[21] = target: T3, Delta-type opioid receptor (Homo sapiens, UniProt P41143); experiment: (§3) Selectivity interaction (Panel of neurotransmitter receptors, receptors, ion channels/regulatory sites) EUB0002781aCl OPRD1; design: recommended concentration 1 uM
[22] = target: T4, Mu-type opioid receptor (Homo sapiens, UniProt P35372); experiment: (§4) Selectivity interaction (Panel of neurotransmitter receptors, receptors, ion channels/regulatory sites) EUB0002781aCl OPRM1; design: recommended concentration 1 uM
[23] = target: T4, Mu-type opioid receptor; experiment: as §4; design: recommended concentration 1 uM; remark: listed apart in the source
[24] = target: T3, Delta-type opioid receptor; experiment: as §3; design: recommended concentration 1 uM; remark: listed apart in the source
[25] = target: Kappa-type opioid receptor (Homo sapiens, UniProt P41145); experiment: Selectivity interaction (Panel of neurotransmitter receptors, receptors, ion channels/regulatory sites) EUB0002781aCl OPRK1; design: recommended concentration 1 uM
[26] = target: Voltage-dependent L-type calcium channel subunit alpha-1S (Homo sapiens) (UniProt Q13698); experiment: Selectivity interaction (Panel of neurotransmitter receptors, receptors, ion channels/regulatory sites) EUB0002781aCl CACNA1S; design: recommended concentration 1 uM; details: at 10 µM
[27] = target: T5, Chromobox protein homolog 2 (Homo sapiens, UniProt Q14781); experiment: (§5) Selectivity interaction (Fluorescence polarisation assay (chromodomain family)) EUB0002326a CBX2; design: recommended concentration 1 uM
T5 sequence (Q14781 whole entry): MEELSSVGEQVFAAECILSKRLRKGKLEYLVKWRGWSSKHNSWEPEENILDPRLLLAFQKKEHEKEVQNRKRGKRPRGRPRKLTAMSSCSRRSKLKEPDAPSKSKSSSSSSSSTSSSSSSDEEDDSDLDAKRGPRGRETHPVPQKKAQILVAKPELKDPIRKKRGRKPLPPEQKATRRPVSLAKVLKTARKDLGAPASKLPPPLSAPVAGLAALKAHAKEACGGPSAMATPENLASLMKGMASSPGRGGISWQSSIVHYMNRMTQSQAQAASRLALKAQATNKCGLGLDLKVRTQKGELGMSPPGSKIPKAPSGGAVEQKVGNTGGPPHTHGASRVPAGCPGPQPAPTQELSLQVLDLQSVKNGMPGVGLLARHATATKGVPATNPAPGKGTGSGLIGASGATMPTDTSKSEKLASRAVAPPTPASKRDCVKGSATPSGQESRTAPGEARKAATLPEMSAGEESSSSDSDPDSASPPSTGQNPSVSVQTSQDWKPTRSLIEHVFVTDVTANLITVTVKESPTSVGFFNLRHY

[28] = target: T5, Chromobox protein homolog 2; experiment: as §5; design: recommended concentration 1 uM; remark: listed apart in the source
[29] = target: Chromobox protein homolog 7 (Homo sapiens, UniProt O95931); experiment: Selectivity interaction (Fluorescence polarisation assay (chromodomain family)) EUB0002326a CBX7; design: recommended concentration 1 uM
[30] = target: cGMP-inhibited 3',5'-cyclic phosphodiesterase 3B (Homo sapiens, UniProt Q13370); experiment: Selectivity interaction (Enzymatic assay) EUB0002598a PDE3B; design: recommended concentration 1 uM
[31] = target: Cathepsin S (Homo sapiens, UniProt P25774); experiment: Selectivity interaction (Enzymatic assay) EUB0002529a CTSS; design: recommended concentration 1 uM
[32] = target: T6, Histone deacetylase 8 (Homo sapiens, UniProt Q9BY41)
T6 sequence (Q9BY41 whole entry): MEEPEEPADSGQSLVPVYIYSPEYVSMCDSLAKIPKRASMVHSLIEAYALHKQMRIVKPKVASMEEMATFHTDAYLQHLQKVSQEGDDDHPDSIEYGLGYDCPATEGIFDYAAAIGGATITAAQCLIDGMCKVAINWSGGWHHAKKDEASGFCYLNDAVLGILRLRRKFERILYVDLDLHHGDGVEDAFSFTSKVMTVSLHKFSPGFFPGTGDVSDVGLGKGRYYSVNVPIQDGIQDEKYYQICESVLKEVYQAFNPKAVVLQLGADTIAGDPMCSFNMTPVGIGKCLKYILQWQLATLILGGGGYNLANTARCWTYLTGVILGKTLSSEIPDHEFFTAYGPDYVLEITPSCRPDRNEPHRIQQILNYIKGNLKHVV

[33] = target: T6, Histone deacetylase 8; remark: listed apart in the source
[34] = target: T6, Histone deacetylase 8; remark: listed apart in the source

T1 sequence (Q09472 whole entry): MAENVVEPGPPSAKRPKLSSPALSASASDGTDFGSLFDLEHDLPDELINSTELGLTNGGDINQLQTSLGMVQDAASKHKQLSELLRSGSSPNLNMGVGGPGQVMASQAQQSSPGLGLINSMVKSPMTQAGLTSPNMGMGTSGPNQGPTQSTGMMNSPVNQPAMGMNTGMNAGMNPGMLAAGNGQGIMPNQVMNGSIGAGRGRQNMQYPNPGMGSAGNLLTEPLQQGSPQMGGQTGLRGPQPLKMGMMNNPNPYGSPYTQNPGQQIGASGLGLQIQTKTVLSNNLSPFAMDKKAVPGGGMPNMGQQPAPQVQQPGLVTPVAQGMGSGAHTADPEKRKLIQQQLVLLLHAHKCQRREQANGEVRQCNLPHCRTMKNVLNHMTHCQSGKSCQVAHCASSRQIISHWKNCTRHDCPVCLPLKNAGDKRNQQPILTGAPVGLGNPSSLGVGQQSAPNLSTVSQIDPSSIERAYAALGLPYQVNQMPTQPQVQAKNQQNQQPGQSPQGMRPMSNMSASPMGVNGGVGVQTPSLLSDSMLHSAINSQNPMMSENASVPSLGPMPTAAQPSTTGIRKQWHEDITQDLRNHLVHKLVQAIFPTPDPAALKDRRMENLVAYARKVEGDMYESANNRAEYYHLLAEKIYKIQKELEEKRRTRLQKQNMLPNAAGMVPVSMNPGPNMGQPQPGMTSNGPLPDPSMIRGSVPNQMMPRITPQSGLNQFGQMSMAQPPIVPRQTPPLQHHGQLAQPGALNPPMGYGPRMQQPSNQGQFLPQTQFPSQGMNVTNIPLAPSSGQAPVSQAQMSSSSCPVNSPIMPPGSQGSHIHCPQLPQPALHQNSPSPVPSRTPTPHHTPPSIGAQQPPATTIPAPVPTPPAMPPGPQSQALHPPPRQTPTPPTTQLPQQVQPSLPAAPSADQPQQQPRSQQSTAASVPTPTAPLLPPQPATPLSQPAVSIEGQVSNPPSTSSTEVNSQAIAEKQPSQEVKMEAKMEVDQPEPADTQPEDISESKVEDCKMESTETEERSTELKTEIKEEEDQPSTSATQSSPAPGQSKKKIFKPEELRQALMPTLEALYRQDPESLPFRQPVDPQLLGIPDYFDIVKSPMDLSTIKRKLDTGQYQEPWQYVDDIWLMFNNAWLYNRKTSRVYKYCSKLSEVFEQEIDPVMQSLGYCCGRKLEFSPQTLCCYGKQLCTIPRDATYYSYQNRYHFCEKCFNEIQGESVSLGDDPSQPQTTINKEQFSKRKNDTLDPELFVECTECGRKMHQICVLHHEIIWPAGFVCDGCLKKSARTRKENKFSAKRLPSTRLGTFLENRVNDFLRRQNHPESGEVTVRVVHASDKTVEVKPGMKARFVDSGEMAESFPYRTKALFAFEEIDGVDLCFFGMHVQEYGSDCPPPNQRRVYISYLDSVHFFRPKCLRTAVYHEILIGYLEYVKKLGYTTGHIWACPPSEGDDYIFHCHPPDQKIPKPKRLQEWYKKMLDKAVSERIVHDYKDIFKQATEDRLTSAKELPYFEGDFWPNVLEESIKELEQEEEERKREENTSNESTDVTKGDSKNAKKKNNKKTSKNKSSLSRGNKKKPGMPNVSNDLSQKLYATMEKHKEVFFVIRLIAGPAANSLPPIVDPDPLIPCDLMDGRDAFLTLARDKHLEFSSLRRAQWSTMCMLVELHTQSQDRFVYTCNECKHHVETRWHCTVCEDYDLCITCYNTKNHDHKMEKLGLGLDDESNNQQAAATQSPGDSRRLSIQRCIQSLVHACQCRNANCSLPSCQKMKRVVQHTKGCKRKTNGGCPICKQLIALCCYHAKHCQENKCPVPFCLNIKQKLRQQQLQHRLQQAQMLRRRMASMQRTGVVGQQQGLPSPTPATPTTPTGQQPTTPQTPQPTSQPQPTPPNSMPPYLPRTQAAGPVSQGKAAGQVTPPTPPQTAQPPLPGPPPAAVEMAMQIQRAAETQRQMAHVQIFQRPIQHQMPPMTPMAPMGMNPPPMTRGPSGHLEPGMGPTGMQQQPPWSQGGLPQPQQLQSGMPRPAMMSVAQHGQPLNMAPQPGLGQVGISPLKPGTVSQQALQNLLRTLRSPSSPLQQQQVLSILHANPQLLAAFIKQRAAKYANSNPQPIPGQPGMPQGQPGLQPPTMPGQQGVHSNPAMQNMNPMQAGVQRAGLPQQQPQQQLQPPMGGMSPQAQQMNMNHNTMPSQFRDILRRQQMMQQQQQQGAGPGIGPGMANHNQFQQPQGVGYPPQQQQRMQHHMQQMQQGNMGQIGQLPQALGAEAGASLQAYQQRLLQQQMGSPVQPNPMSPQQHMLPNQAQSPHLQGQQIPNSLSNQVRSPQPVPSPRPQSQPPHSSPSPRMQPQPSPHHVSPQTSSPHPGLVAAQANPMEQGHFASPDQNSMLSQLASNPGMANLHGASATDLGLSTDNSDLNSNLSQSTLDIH
Sequence of 5-hydroxytryptamine receptor 1B (Homo sapiens) (P28222 whole entry): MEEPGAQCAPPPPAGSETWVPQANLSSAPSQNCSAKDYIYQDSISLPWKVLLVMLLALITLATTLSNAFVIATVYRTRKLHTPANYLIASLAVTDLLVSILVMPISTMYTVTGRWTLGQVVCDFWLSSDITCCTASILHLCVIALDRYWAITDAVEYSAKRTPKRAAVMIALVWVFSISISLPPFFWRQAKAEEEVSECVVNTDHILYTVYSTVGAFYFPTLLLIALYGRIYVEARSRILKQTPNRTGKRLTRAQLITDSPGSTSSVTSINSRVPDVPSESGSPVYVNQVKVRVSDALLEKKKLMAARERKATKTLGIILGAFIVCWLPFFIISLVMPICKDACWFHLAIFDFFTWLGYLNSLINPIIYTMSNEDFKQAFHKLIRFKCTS
T4 sequence (P35372 whole entry): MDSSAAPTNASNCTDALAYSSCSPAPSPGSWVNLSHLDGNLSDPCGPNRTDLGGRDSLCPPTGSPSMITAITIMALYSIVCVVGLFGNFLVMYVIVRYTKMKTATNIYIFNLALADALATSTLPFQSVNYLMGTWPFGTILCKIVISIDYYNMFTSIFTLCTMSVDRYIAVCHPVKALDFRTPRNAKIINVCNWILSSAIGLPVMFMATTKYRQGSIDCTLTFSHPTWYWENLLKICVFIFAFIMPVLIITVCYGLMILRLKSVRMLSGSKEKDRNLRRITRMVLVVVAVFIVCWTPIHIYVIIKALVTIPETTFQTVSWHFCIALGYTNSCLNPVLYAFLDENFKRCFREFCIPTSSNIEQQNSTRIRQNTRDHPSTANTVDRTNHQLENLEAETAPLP
T3 sequence (P41143 whole entry): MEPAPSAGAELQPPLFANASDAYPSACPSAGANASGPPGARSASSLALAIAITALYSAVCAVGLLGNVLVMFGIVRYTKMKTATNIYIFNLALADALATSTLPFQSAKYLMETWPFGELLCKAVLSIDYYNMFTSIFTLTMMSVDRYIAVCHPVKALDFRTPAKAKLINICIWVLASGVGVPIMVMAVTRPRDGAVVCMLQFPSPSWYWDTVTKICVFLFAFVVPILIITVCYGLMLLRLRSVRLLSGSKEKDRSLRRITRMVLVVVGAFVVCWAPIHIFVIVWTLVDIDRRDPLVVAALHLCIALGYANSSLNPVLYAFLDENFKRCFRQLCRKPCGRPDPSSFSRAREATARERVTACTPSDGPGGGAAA
Sequence of Chromatin remodeling regulator CECR2 (Q9BXF3 whole entry): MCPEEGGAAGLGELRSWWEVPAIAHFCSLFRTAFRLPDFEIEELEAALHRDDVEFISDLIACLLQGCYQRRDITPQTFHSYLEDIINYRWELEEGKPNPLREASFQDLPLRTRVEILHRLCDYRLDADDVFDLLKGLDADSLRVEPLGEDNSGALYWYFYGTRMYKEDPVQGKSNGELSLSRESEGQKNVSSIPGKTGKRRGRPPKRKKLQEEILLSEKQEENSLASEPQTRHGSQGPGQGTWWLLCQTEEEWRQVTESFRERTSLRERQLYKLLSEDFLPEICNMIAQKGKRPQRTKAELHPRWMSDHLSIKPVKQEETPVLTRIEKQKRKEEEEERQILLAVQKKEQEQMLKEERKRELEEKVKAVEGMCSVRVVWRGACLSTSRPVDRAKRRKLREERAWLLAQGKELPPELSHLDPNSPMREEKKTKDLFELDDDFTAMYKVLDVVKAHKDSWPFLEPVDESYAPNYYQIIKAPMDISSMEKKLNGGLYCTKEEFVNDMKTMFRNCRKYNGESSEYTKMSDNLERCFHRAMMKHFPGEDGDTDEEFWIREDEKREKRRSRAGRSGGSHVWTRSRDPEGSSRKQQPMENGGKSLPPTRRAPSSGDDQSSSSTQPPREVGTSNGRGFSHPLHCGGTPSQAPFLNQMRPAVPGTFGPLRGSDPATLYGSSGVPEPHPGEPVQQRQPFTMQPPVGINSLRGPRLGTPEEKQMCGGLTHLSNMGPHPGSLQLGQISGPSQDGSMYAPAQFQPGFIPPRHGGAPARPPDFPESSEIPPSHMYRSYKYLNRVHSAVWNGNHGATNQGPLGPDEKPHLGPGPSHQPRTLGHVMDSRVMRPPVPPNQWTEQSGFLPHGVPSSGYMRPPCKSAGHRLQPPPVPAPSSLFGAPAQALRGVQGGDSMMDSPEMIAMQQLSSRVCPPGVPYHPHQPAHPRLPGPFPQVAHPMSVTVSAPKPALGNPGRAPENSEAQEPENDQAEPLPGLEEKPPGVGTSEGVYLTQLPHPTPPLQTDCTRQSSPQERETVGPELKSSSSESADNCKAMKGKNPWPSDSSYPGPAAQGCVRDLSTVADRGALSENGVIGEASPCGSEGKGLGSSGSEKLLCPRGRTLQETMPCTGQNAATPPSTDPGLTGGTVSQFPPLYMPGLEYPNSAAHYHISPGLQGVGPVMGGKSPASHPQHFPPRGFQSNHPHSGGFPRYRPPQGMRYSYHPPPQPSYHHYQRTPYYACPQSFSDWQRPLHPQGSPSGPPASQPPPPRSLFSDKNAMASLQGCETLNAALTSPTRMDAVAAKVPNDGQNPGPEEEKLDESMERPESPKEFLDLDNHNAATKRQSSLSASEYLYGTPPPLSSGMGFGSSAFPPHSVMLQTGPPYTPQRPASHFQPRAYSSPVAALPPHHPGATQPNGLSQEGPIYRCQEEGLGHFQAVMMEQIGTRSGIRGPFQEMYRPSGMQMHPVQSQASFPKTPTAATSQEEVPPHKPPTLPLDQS

Structure (SMILES): CCCCOc1c(OC)cc(C(=O)NCC2(N(C)C)CCOCC2)cc1OC
- pIC50 [7]: 6.06

Structure (SMILES): CN1[C@@H]2CC[C@H]1C[C@@H](OC(c1ccc(F)cc1)c1ccc(F)cc1)C2
- pKi [8]: 7.94

Structure (SMILES): N=C(N)NC(=O)c1cnn(-c2cccc3ncccc23)c1C1CC1
- pKi [21]: 6.62
- pKi [22]: 7.22
- pKi [23]: 6.67
- pKi [24]: 6.67
- pKi [25]: 6.67
- inhibition [26]: 62%

Structure (SMILES): C#CCNC(=O)[C@H](CO)NC(=O)[C@H](CCCCN(CC)CC)NC(=O)[C@H](NC(=O)[C@@H](NC(=O)c1ccc(Oc2ccccc2)cc1)C1CCCC1)[C@@H](C)CC ({Benzoyl(4-OPh)}-[Gly(cPent)][d(aIle)][Lys(Et2)]S-{NH(propargyl)})
- pKd [27]: 5.34
- pKd [28]: 5.34
- pKd [29]: < 4.80

Structure (SMILES): CC(C)C(=O)c1c(C(C)C)nn2ccccc12 [IBUDILAST]
- pIC50 [30]: 5.57

Structure (SMILES): CN(C)Cc1ccc(S(=O)(=O)n2ccc(/C=C/C(=O)NO)c2)cc1
- pIC50 [32]: 6.06
- pIC50 [33]: 6.06
- pIC50 [34]: 6.06

Continued, in another order:

- Enzyme activity [1]: < 20%
Structure (SMILES): Cn1c(=O)c2c(nc(N3CCNCC3)n2Cc2nnc(-c3ccc(Cl)c(Cl)c3)o2)n(C)c1=O
- Inhibition of control [2]: > 50%
- Inhibition of control [3]: 50%
- Inhibition of control [4]: > 50%
- Inhibition of control [5]: > 50%
- Inhibition of control [6]: > 50%

- pIC50 [9]: 6.44
- pIC50 [10]: 6.44
- pIC50 [11]: 6.44
Structure (SMILES): CCCOc1ccc(CCc2nc3cc(-c4c(C)noc4C)ccc3n2CCN2CCOCC2)cc1

- pKd [12]: 6.85
- pKd [13]: 6.72
- pKd [14]: 7.00
- pKd [15]: 6.96
- pKd [16]: 7.19
- pKd [17]: 7.60
- pKd [18]: 7.60
- pKd [19]: 7.64
- pKd [20]: 7.42
Structure (SMILES): Cc1cc(-c2ccc3nc(C4CCOCC4)n(CCOC(F)(F)F)c3c2)cn(C)c1=O

- pKi [31]: 6.07
Structure (SMILES): Cn1nc(C(C)(C)C)cc1C(=O)NC(Cc1cccc(Cl)c1)C(=O)NCC#N (centres undefined)
